Assay results from patent US20250064874A1, “Mushroom Spore, Cannabinoid, and Specified Compositions” (priority 2023, published 2025).

Key:
[1] = tested on: shin splits, sciatica tight muscles, aching back pains, and circulation issues; test: Example 12 case report: soaking body in magnesium sulfate with or without Reishi spore powder; assay type: in vivo, human; conditions: body soaked 30 minutes in 20 gallons of hot water, 1 cup Magnesium sulfate
Procedure: The person tried soaking body in 1 cup of Magnesium sulfate with 20 gallons of hot water for 30 minutes. […] After 72 hours, the person soaked their body in 20 gallons of hot water comprising 1 cup of Magnesium sulfate in combination with 1000 mg of Reishi Mushroom Spore Powder, for 30 minutes.

[2] = isolated or synthetic CBD; cited from earlier work
[3] = tested on: neuronal cultures exposed to glutamate; conditions: in vitro, isolated or synthetic CBD; cited from earlier work

Compound | improvement noticed (pain relief, sleep, mood, circulation, dexterity) [1] | difference between treated animals and placebo [2] | prevention of toxicity of glutamate [3]
O=S(=O)([O-])[O-].[Mg+2] [Magnesium sulfate] | slight improvement |  | 
C=C(C)[C@@H]1CCC(C)=C[C@H]1c1c(O)cc(CCCCC)cc1O [CBD, cannabidiol] |  | failed to find a difference | could be prevented to some extent
